In series [1] the test system is Caco-2 cells. In words: Trans-epithelial electrical resistance (TEER), integrity of epithelial cell layer. The class given is cell-based, human. Particulars: Caco-2 monolayer, monitored for 12 hours.
Experimental: Transcellular transport of the aggregate of insulin and chalcogen heterocyclic compound in intestinal model in vitro and integrity of epithelial cell layer
(1) Caco-2 cells were plated in a 24-well Transwell chamber and cultured for 21 days. […] (2) The aggregate was added to the upper Transwell chamber at 20 μg/mL, the concentration of insulin in the liquid in the lower Transwell chamber was detected every 1 hour, and the TEER was monitored continuously for 12 hours.
In series [2] the test system is diabetic model mice. In words: Blood glucose of diabetic model mice after oral administration of aggregate suspension. The class given is in vivo, C57BL/6J mice. The method, then:
Change in blood glucose level of diabetic model mice after administered orally with the aggregate of insulin and chalcogen heterocyclic compound (1) Streptozotocin (STZ) was intraperitoneally injected into 6-8 week-old C57BL/6J mice for five consecutive days to induce pancreatic islet B-cell damage. On the 17th day after the first injection, the blood glucose concentration of the mice was measured, and the diabetic mouse model was considered to be successfully established when the blood glucose concentration was higher than 300 mg/dL. (2) After the diabetic model mice were orally administered with a suspension of the above aggregate at an amount of insulin of 80 U/kg, blood was collected from the tail vein of the mice at different time points to monitor the change in blood glucose. In control experiment 1, an equal amount of free insulin was administered orally to the diabetic model mice. In control experiment 2, an equal volume of physiological saline was administered orally to the diabetic model mice. In control experiment 3, insulin was injected subcutaneously to the diabetic model mice at 5 U/kg. Change in blood glucose level in diabetic model mice after administration of a suspension of the aggregate of insulin and chalcogen heterocyclic compound: The diabetic model mice were orally administered with a suspension of the aggregate 2 obtained above at an amount of insulin of 50 U/kg, and then the blood was collected from the tail vein of the mice at different time points to monitor the change in blood glucose concentration. In control experiment 1, an equal volume of physiological saline was administered orally to the diabetic model mice, and in control experiment 2, insulin was injected subcutaneously to the diabetic model mice at 5 U/kg. Change in blood glucose level in diabetic model mice after administration of a suspension of the aggregate of insulin and chalcogen heterocyclic compound: The diabetic model mice were orally administered with a suspension of the above aggregate 3 at an amount of insulin of 50 U/kg. […]

Series [3] has as its system diabetic model mice. Nature of the series: Blood glucose of diabetic model mice after oral administration of enteric-coated capsule loading lyophilized aggregate. The class given is in vivo, C57BL/6J mice. The method, then:
(1) Streptozotocin (STZ) was intraperitoneally injected into 6-8 week-old C57BL/6J mice for five consecutive days to induce pancreatic islet B-cell damage. On the 17th day after the first injection, the blood glucose concentration of the mice was measured, and the diabetic mouse model was considered to be successfully established when the blood glucose concentration was higher than 300 mg/dL. (2) After the diabetic model mice were orally administered with a suspension of the above aggregate at an amount of insulin of 80 U/kg, blood was collected from the tail vein of the mice at different time points to monitor the change in blood glucose. In control experiment 1, an equal amount of free insulin was administered orally to the diabetic model mice. In control experiment 2, an equal volume of physiological saline was administered orally to the diabetic model mice. In control experiment 3, insulin was injected subcutaneously to the diabetic model mice at 5 U/kg. Change in blood glucose level of diabetic model mice after orally administered with an enteric-coated capsule loading the aggregate of insulin and chalcogen heterocyclic compound (1) The aggregate was prepared into a lyophilized powder and loaded in an enteric-coated capsule. In control experiment 1, an equal amount of free insulin was loaded in an enteric-coated capsule. (2) A diabetic mice model was established according to the method as above. The mice were administered with recombinant insulin at an amount of 20 U/kg, after which the blood was taken from the tail vein of the mice at different time points to monitor the change in blood glucose concentration. In control experiment 2, insulin was injected subcutaneously to the diabetic model mice at 5 U/kg.

Series [4] deals with diabetic model pigs. In words: Blood glucose of diabetic model pigs after oral administration of enteric-coated capsule loading lyophilized aggregate. Particulars: oral enteric-coated capsule loading free insulin, 20 U/kg. The series is classed as in vivo, Bama mini-pigs. As for the experimental part: Change in blood glucose level of diabetic model pigs after orally administered with an enteric-coated capsule loading the aggregate of insulin and chalcogen heterocyclic compound (1) Streptozotocin (STZ, with a concentration of 75 mg/mL) was infused intravenously to 4-month-old Bama mini-pigs at 150 mg/kg to induce pancreatic islet B-cell damage. On the 7th day after the first infusion, the blood glucose concentration of the pigs was measured, and the diabetic pig model was considered to be successfully established when the blood glucose concentration was higher than 300 mg/dL. (2) The aggregate was prepared into a lyophilized powder and loaded in an enteric-coated capsule. In control experiment 1, an equal amount of free insulin was loaded in an enteric-coated capsule. (3) The diabetic model pigs were administered with recombinant insulin at an amount of 20 U/kg, after which the blood was taken from the jugular vein of the pigs at different time points to monitor the change in blood glucose concentration. (4) The diabetic model pigs were given normal food at the 3rd and 8th hour after administration, and the food bowl was removed after 15 minutes.

Where [5] appears, read: subcutaneous injection 5 U/kg, 15 minutes after injection.
[6] abbreviates: subcutaneous injection 5 U/kg, within 15-180 minutes.

This note sets out measurements from US20250242032A1, “AGGREGATE FORMED BY MEANS OF ASSEMBLING CHALCOGEN HETEROCYCLIC COMPOUND AND INSULIN, AND PREPARATION METHOD THEREFOR, AND INSULIN ORAL PREPARATION” (FUZHOU UNIVERSITY, priority 2021, published 2025).

Regarding `CCCCCCCCCC(=O)[O-].[Na+]` [sodium caprate], the “change in TEER” value in series [1] is on record as “drastically reduced”.
Take “free insulin: human recombinant insulin, used unencapsulated as oral control or subcutaneous injection control”: the “reduction in blood glucose concentration” value in series [2] (oral, equal amount of free insulin (80 U/kg)) is on record as “little reduction”; in series [2] (setting [5]), “significant reduction”; in series [3] (oral enteric-coated capsule loading free insulin, 20 U/kg) it was “little reduction”; in series [4], “little reduction”. In addition, the “reduction of blood glucose concentration” value in series [2] (setting [6]) and in series [3] (setting [6]) was 30-50% throughout. For the same compound, the “reduction in blood glucose” value in series [3] (setting [5]) is given as “significant reduction”.
